Experimental data as given in patent US8314082B2, “Stilbene derivatives for ADP-ribosyl cyclase inhibitors” (Industrial Cooperation Foundation Chonbuk National …, priority 2006, dated 2012).

Columns and labels:
[1] = system: Ang II induced [Ca^2+]i increase in rat cardiomyocytes; experiment: Ang II-mediated [Ca2+]i increase in cardiomyocytes; assay type: cell-based; conditions: pretreatment with 1 mM; sustained but not initial Ca2+
Method: Cardiomyocytes were isolated from Sprague-Dawley rats, weighing 210-240 g, by the method with a slight modification [Xie et al., Biochem. Biophys. Res. Commun. (2005)330:1290-8]. Rat hearts were rapidly excised, cannulated, and subjected to retrograde perfusion on a Langendorff apparatus at 37° C. with Ca^2+-free Krebs-Hanseleit (KH) buffer (10 mM HEPES, 118 mM NaCl, 4.7 mM KCl, 1.2 mM MgSO4, 1.2 mM KH2PO4, 25 mM NaHCO3, 10 mM pyruvate, 11 mM glucose, and […], pH 7.3) for 5 min and then with KH buffer containing 5 mM taurine, 0.075% collagenase Type II and 0.08 mg/l protease type XTV for 7-15 min and washed with KH buffer containing 0.2 mM Ca^2+. The left ventricle was removed, chopped into small pieces and further digested in a glass conical flask at 37° C. for 10 min with shaking. The undigested tissues were removed through a […] nylon sheet. […] Isolated myocytes were pelleted by centrifugation at 60×g for 2 min at room temperature and resuspended in a stabilizing buffer (pH, 7.4) containing 20 mM HEPES, 137 mM NaCl, 4.9 mM KCl, 1.2 mM MgSO4, 15 mM glucose, and 10 mM 2,3-butanedione monoxime (BDM). […] Changes in [Ca^2+]i in cardiomyocytes were determined at 488 nm excitation/530 nm emission by air-cooled argon laser system. The emitted fluorescence at 530 nm was collected using a photomultiplier. […]

[2] = system: ADPR-cyclase purified partially from rat spleen; experiment: ADPR-cyclase activity assay, spleen enzyme; assay type: biochemical; parameters: dose or concentration left out as unconfirmed
Method: (§1) FIGS. 1A and 1B show the inhibition of rat kidney ADPR-cyclase that was incubated with […] NGD^+ or e-NAD^+ in the presence of various concentrations of 4,4′-dihydrioxyazobenzene (DHAB) at 37° C. for 10 min and effects of DHAB on human CD38, rat brain, heart, spleen, and kidney ADPR-cyclase. FIGS. 1A and 1B are referred to as FIG. 1 herein.
(§2) Specific ADPR-cyclase activity was determined by measuring cyclic GDP-ribose (cGDPR) or etheno-ADP-ribose (e-cADPR) fluorometrically using NGD^+ or e-NAD^+ as a substrate [Greaff et al., Biochem. J. (2002)361:379-84]. Samples were incubated in the presence […] NGD^+ or e-NAD^+ with and without an appropriate agent in an assay buffer (25 mM HEPES, pH 7.4, 100 mM NaCl, and 0.1% Triton X-100) in a […]. The reaction mixture was incubated at 37° C. for 10 min. The reaction was stopped by adding […] trichloroacetic acid (10%). […] Fluorescence of cGDPR or e-ADPR in the solution was determined at excitation/emission wavelengths of 297/410 nm (HITACHI F-2000 fluorescence spectrophotometer). cADPR-hydrolase activity was determined by incubating cADPR with ADPR-cyclase or CD38 at 37° C. for 20 min. Hydrolysis of cADPR was analyzed by high performance liquid chromatography as described (White et al., 2000). […]

[3] = system: ADPR-cyclase purified partially from rat brain; experiment: ADPR-cyclase activity assay, brain enzyme; assay type: biochemical; parameters: dose or concentration left out as unconfirmed
Method: as §1, §2

[4] = system: rat kidney ADPR-cyclase; experiment: ADPR-cyclase activity assay (cGDPR / e-ADPR fluorescence from NGD+ or e-NAD+); assay type: biochemical; conditions: various concentrations
Method: as §1
Specific ADPR-cyclase activity was determined by measuring cyclic GDP-ribose (cGDPR) or etheno-ADP-ribose (e-cADPR) fluorometrically using NGD^+ or e-NAD^+ as a substrate [Greaff et al., Biochem. J. (2002)361:379-84]. Samples were incubated in the presence of […] NGD^+ or e-NAD^+ with and without an appropriate agent in an assay buffer (25 mM HEPES, pH 7.4, 100 mM NaCl, and 0.1% Triton X-100) in a […]. The reaction mixture was incubated at 37° C. for 10 min. The reaction was stopped by adding […] trichloroacetic acid (10%). […] Fluorescence of cGDPR or e-ADPR in the solution was determined at excitation/emission wavelengths of 297/410 nm (HITACHI F-2000 fluorescence spectrophotometer). cADPR-hydrolase activity was determined by incubating cADPR with ADPR-cyclase or CD38 at 37° C. for 20 min. Hydrolysis of cADPR was analyzed by high performance liquid chromatography as described (White et al., 2000). […]

sensitivity of enzyme activity to compound [2]	sensitivity of enzyme activity to compound [3]	inhibition of generation of cGDPR and e-ADPR from NGD+ and e-NAD+ [4]	Compound	effect on Ang II-evoked sustained Ca2+ increase [1]
			Oc1ccccc1/N=N/c1ccccc1O [2,2′-DHAB, 2,2′-Dihydroxyazobenzene]	significantly blocked
insensitive	insensitive	concentration-dependent	Oc1ccc(N=Nc2ccc(O)cc2)cc1 [4,4′-DHAB, 4,4′-Dihydroxyazobenzene]	
